Calls of active or inactive are those of the source. The calls are words filed in the database; no cut-off is given here.

Results on 6 compounds are retold here after ChEMBL document CHEMBL1149774, “Synthesis of N-(5,7-diamino-3-phenyl-quinoxalin-2-yl)-3,4,5-substituted anilines and N-[4[(5,7-diamino-3-phenylquinoxalin-2-yl)amino]benzoyl]-l-glutamic acid diethyl ester: evaluation of in vitro anti-cancer and anti-folate activities” (Eur J Med Chem, 2008).

The target in assay [1] is T1, Thymidylate synthase (Lactobacillus casei, UniProt P00469).
T1 sequence (P00469 whole entry): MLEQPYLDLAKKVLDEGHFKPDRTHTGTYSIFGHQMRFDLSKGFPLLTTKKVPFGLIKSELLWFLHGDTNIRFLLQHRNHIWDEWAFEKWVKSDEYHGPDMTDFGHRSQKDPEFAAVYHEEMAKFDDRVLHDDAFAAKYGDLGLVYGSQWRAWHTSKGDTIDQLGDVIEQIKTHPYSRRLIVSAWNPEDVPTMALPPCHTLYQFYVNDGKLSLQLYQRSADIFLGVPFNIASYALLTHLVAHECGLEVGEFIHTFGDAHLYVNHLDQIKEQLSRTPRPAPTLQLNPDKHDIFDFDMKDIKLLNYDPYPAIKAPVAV
Description: Inhibition of Lactobacillus casei thymidylate synthase

Assay [2] has as its target Thymidylate synthase (Escherichia coli, UniProt C3SWJ7).
Assay [3] deals with Thymidylate synthase (Escherichia coli) (UniProt C3SWJ7). Nature of the assay: Inhibition of Escherichia coli thymidylate synthase at 10 uM.
The next assay relates to CCRF-CEM. Nature of the assay: Growth inhibition of human CCRF-CEM cells after 48 hrs by SRB staining method. In kind it is functional. A general note: The SRB assay estimates cell density from bound dye.

Sequence of Thymidylate synthase (Escherichia coli) (C3SWJ7 1-264): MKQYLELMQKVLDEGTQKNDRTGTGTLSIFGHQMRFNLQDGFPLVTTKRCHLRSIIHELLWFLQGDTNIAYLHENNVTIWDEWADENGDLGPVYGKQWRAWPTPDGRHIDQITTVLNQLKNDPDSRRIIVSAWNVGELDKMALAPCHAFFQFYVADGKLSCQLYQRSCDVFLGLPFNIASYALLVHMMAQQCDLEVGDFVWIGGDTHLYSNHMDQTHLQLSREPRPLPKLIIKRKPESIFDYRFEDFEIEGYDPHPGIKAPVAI
Sequence of Thymidylate synthase (Escherichia coli, UniProt C3SWJ7) (C3SWJ7 whole entry): as the sequence (C3SWJ7 1-264) above

For the compound `COc1ccc(Nc2nc3cc([N+](=O)[O-])cc([N+](=O)[O-])c3nc2-c2ccccc2)cc1OC`, the Ki on Thymidylate synthase [1] turned out to be 24 µM; on Thymidylate synthase [2] it was 1 µM.
On to `COc1cc(Nc2nc3cc([N+](=O)[O-])cc([N+](=O)[O-])c3nc2-c2ccccc2)cc(OC)c1`, for which the result in assay [3] was inactive. The affinity on Thymidylate synthase [1] corresponds to a Ki of 6 µM.
As to `COc1ccc(Nc2nc3cc([N+](=O)[O-])cc([N+](=O)[O-])c3nc2-c2ccccc2)cc1`, in assay [3], the outcome was inactive. The compound further returned a Ki at Thymidylate synthase [1] of 8 µM.
The corresponding values for `COc1cc(Nc2nc3cc([N+](=O)[O-])cc([N+](=O)[O-])c3nc2-c2ccccc2)cc(OC)c1OC` are “inactive” and 11 µM.
For `CCOC(=O)CCC(NC(=O)c1ccc(Nc2nc3cc([N+](=O)[O-])cc([N+](=O)[O-])c3nc2-c2ccccc2)cc1)C(=O)OCC` (stereo unspecified), the Ki on Thymidylate synthase [1] worked out at 36 µM; on Thymidylate synthase [2], 3 µM.
On to `CN(Cc1cnc2nc(N)nc(N)c2n1)c1ccc(C(=O)N[C@@H](CCC(=O)O)C(=O)O)cc1` [METHOTREXATE], for which halving of growth with CCRF-CEM (GI50) required 0.0398 µM.

In general, Ki refers to the dissociation constant of the complex between target and ligand, obtained from inhibition or displacement. One may read the GI50 as the concentration that inhibits growth by half. The low end stands for more potent growth inhibition, the high end for less potent growth inhibition.
